Patent US20070141645A1, “Measuring method using whole blood” (MITSUBISHI KAGAKU IATRON, INC., priority 2005, published 2007)
Read-outs that look alike come from different tables or passages of the source.

How the values were obtained:
[1] = biological target: endogenous ALP in whole blood (Homo sapiens, UniProt P05186); details: for Positive control (S) measured value (count of luminescence): cTnI 10 ng/mL added
Description: Each sample was measured using a reagent kit for measuring cardiac troponin I (cTnI). The kit contained a solution of the first antibody specific to cTnI (a solution of magnetic particles), a solution of the labeled second antibody, a B/F washing liquid, a substrate solution, and the like, and was packaged in a cartridge applicable to an automated immunoanalyzer described below. In this example, a buffer not containing a labeled antibody was used, instead of the solution of the second antibody labeled with an alkaline phosphatase (hereinafter referred to as “ALP”). The measurement was carried out using an automated immunoanalyzer for an immunoassay using magnetic particles, as disclosed in Japanese Patent No. 3115501. […] The measuring step in the analyzer will be described below.
A chemiluminescent substrate CDP-Star (Tropics) was used as a substrate. A count of luminescence detected by a photomultiplier tube (PMT) was regarded as a result of the measurement.
Each cartridge for an automatic measurement was filled with each sample, a liquid for diluting a sample, the solution of magnetic particles (coated with the first antibody), the washing liquid for B/F separation, the solution of the second antibody, the substrate solution, and the like, and set to the automated analyzer. The following steps were carried out in accordance with a normal procedure: • (1) The sample solution, the solution of magnetic particles, and the solution of the second antibody, previously adjusted to predetermined dilutions with the diluting liquid, were mixed to generate an immunocomplex by an antigen-antibody reaction. • (2) A B/F separation was carried out to remove unreacted substances as follows. The resulting reaction liquid was aspirated into the tip arranged as a line for aspirating a solution, and the magnetic particles were trapped by contact with a magnet on the outer wall of the tip. The solution was delivered from the tip while trapping the magnetic particles on the inner wall of the tip. After the separation, the washing liquid for the B/F separation filled in another reaction vessel was aspirated and delivered to wash the magnetic particles in the tip. • (3) The magnet was separated from the outer wall of the tip. The substrate solution was aspirated and delivered to disperse the magnetic particles trapped on the inner wall of the tip and carry out an enzyme reaction. • (4) An amount of luminescence was measured by PMT.
(§1) The whole blood sample showing a high background in Example 1 was used as a whole blood negative control, and a plasma obtained by centrifuging the whole blood sample was used as a plasma negative control. Further, a sample obtained by adding a commercially available cTnI (10 ng/mL) to the whole blood sample was used as a whole blood positive control, and a plasma obtained by centrifuging the whole blood positive control was used as a plasma positive control. The obtained 4 samples were measured using the automated immunoanalyzer and the reagent kit for measuring cTnI, as described in Example 1 or 2, except that the ALP-labeled antibody was used as the second antibody.
(§2) Levamisole (SIGMA) was used to examine an inhibitory effect on an endogenous ALP. Levamisole was added to the solution of magnetic particles, the substrate solution, or both thereof at the final concentration of 0.2 mM. When levamisole was added to the solution of magnetic particles, the inhibitor acted in the measuring step (1) of the automated immunoanalyzer described in Example 1. When levamisole was added to the substrate solution, the inhibitor acted in the measuring step (3).

ALP used as the label = details: addition of levamisole 0.2 mM; positive control
Description: as §1, §2

endogenous ALP = endogenous ALP (Homo sapiens, UniProt P05186); details: 3 weeks
Sequence of endogenous ALP (P05186 18-501 limits assumed): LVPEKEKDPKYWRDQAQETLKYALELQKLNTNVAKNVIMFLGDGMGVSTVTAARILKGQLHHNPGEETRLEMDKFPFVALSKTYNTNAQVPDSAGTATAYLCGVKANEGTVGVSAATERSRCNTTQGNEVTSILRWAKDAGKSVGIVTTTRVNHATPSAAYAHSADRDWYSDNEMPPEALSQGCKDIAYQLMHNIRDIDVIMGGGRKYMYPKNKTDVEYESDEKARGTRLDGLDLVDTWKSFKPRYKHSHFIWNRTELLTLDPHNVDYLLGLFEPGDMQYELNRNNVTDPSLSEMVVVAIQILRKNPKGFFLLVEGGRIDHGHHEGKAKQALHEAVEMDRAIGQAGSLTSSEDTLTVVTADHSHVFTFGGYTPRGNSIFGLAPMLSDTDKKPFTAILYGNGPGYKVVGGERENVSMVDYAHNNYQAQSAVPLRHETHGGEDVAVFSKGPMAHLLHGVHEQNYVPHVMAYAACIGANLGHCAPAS
Description: To a solution containing 0.4 mM CDP-Star, levamisole was added to final concentrations of 0.4, 1.0 and 4.0 mM to prepare substrate solutions to be examined. As a control, a substrate solution containing 0.4 mM CDP-Star without levamisole was used. Each solution was kept at 4, 25, and 37° C. for 3 weeks, and each remaining activity was measured.
Further, the substrate solutions containing 0.4 mM levamisole and kept at 4° C. and 37° C. for 3 weeks were used to confirm the inhibitory effect of levamisole.

[2] = levamisole 0.2 mM in magnetic particles solution and substrate solution
[3] = levamisole 0.2 mM in substrate solution only
[4] = plasma (a), levamisole 0.2 mM in magnetic particles solution and substrate solution
[5] = plasma (a), levamisole 0.2 mM in substrate solution only
[6] = whole blood (b), levamisole 0.2 mM in magnetic particles solution and substrate solution
[7] = whole blood (b), levamisole 0.2 mM in substrate solution only

Sequence of endogenous ALP in whole blood (P05186 18-501 limits assumed): as above

c1ccc([C@H]2CN3CCSC3=N2)cc1 [levamisole]
increased background caused by an endogenous ALP in whole blood samples or hemolized samples ([1]; addition of levamisole 0.2 mM): suppressed
Negative control b/a (whole blood to plasma) [1, 2]: 2.33
Positive control b/a (whole blood to plasma) [1, 2]: 1.22
b/[levamisole (—) whole blood negative control] [1, 2]: 0.18
b/[levamisole (—) whole blood positive control] [1, 2]: 0.79
Negative control b/a (whole blood to plasma) [1, 3]: 2.41
Positive control b/a (whole blood to plasma) [1, 3]: 1.33
b/[levamisole (—) whole blood negative control] [1, 3]: 0.17
b/[levamisole (—) whole blood positive control] [1, 3]: 0.94
Positive control (S) measured value (count of luminescence) [1, 4]: 78622
Positive control (S) measured value (count of luminescence) [1, 5]: 84776
Negative control (N) measured value (count of luminescence) [1, 4]: 808
S/N (positive control to negative control) [1, 4]: 97.3
Negative control (N) measured value (count of luminescence) ([1]; plasma (a), levamisole 0.2 mM in substrate (CDP-star) solution only): 708
S/N (positive control to negative control) [1, 5]: 119.7
Positive control (S) measured value (count of luminescence) [1, 6]: 95856
Positive control (S) measured value (count of luminescence) [1, 7]: 113017
Negative control (N) measured value (count of luminescence) [1, 6]: 1883
S/N (positive control to negative control) [1, 6]: 50.9
Negative control (N) measured value (count of luminescence) ([1]; whole blood (b), levamisole 0.2 mM in substrate (CDP-star) solution only): 1705
S/N (positive control to negative control) [1, 7]: 66.3
effect on the ALP used as the label (ALP used as the label): did not adversely affect
count with stored substrate solution (inhibitory effect of levamisole) (endogenous ALP; 0.4 mM levamisole in 0.4 mM CDP-Star substrate solution kept at 4° C.): 4086
count with stored substrate solution (inhibitory effect of levamisole) (endogenous ALP; 0.4 mM levamisole in 0.4 mM CDP-Star substrate solution kept at 37° C.): 2920
